Results on four substances are retold here after PMC9924185, “A validated LC–MS/MS method for clinical pharmacokinetics and presumptive phase II metabolic pathways following oral administration of Andrographis paniculata extract” (Scientific Reports, 2023).

A short description of the data set: Metabolite profiling in urine by LC-QTOF/MS after oral administration of A. paniculata extract. The data set is classed as in vivo. The settings on record: tentative metabolite in human urine (pooled 0–4 and 4–8 h) after single oral A. paniculata extract. How it is done: For qualitative determination of untargeted compounds, liquid chromatography-quadrupole time-of-flight mass spectrometry (LC-QTOF/MS) was performed on an Agilent 6540 QTOF/MS (Agilent Technologies, USA) equipped with an Agilent 1260 infinity liquid chromatography system. The stationary phase of the chromatographic separation was performed on a 150 mm × 4.6 mm, 5.0 µm Phenomenex Luna C18 column (Phenomenex, USA) using a mobile phase consisting of 0.1% formic acid in water pH 2.5–2.7 (A) and 100% acetonitrile (B) at a constant flow rate of 0.5 mL/min with a controlled oven temperature at 35 °C, (and 10 µL) of injection volume. The elution gradient was started with 30%B, and was increased to 90%B within 20 min, then maintained at 95%B during 25–30 min followed by a post-run for 5 min.
Mass spectrometric analysis was performed using an ESI negative and positive modes with varying collision energies (10, 20, and 40 V) over a mass range of m/z 100–1200 Da. The MS conditions were as follows: capillary voltage = 3500 V; flow rate of drying gas (N2) = 10.0 L/min, 350 °C; nebulizer pressure = 30 psi, fragmentation voltage = 250 V for negative mode and 100 V for positive mode. All acquisition data were analyzed using MassHunter Software B.07.01 and MassHunter Qualitative Analysis Software B.08.00 (Agilent Technologies, USA). To support the metabolite identification, the MS chromatograms were determined by comparing the fragmentation patterns of metabolites and library searches in Mass Hunter, and Human Metabolome Database (HMDB). For sample preparation, pooled urine samples at 0–4 and 4–8 h were prepared using the same extraction process described in the pharmacokinetic study.
For the substance “14-Deoxy-11,12-didehydroandrographolide glucuronide [M2]”, the “Metabolic Pathway” value is recorded as “Glucuronidation”.

Consider “14-Deoxyandrographolide glucuronide [M3]”, for which the “Metabolic Pathway” value was “Glucuronidation”.

With Andrographolide glucuronide [M1], the “Metabolic Pathway” value is on record as “Glucuronidation”.

Andrographolide sulfate [M4]: the “Metabolic Pathway” value is “Sulfation*”.
